Source: patent publication US12281086B2, “2-aminothiazoles derivatives and method of preparation thereof using super-paramagnetic iron oxide nanoparticles (SPIONs)” (Imam Abdulrahman Bin Faisal University, priority 2023, dated 2025)

Legend:
Type in all cases: cell-based
S. aureus = assay: Anti-microbial activity, inhibition zone, S. aureus; for Inhibition Zone(mm ± SD) S. aureus: test concentration or dose not given here
Method: (§1) All synthesized compounds were tested for their antimicrobial activities against five types of microorganisms, including gram-negative and positive bacteria and fungi. The gram-negative bacteria include E. coli and P. aeruginosa, while B. subtilis and S. aureus represented the gram-positive bacteria. C. albicans was the fungus used in the screening. […] In addition, the antibacterial activity of the Schiff bases seems to be insensitive to the position and the nature of the substituents. […] For the gram-positive bacteria, the antibacterial activity was more significant in Schiff base derivatives when compared to azo derivatives.

C. albicans = assay: Anti-microbial (antifungal) activity, inhibition zone, C. albicans; note: test concentration or dose not given here
Method: as §1

P. aeruginosa = assay: Anti-microbial activity, inhibition zone, P. aeruginosa; for Inhibition Zone(mm ± SD) P. aeruginosa: test concentration or dose not given here
Method: as §1

E. coli = assay: Anti-microbial activity, inhibition zone, E. coli; for Inhibition Zone(mm ± SD) E. coli: test concentration or dose not given here
Method: as §1

B. subtilis = assay: Anti-microbial activity, inhibition zone, B. subtilis; for Inhibition Zone(mm ± SD) Bacillus: test concentration or dose not given here; conditions: for Inhibition Zone(mm ± SD) Bacillus: Bacillus (B. subtilis)
Method: as §1

Structure (SMILES)	Inhibition Zone(mm ± SD) S. aureus (S. aureus)	Inhibition Zone(mm ± SD) Candida (C. albicans)	Inhibition Zone(mm ± SD) P. aeruginosa (P. aeruginosa)	Inhibition Zone(mm ± SD) E. coli (E. coli) [mm]	Inhibition Zone(mm ± SD) Bacillus (B. subtilis)	growth inhibition against P. aeruginosa (in words) (P. aeruginosa)	antibacterial activity against E. coli (in words) (E. coli)	activity against S. aureus (in words) (S. aureus)	activity against B. subtilis (in words) (B. subtilis)
Oc1ccc(C=Nc2nccs2)cc1 [Compound 12, 4-((thiazol-2-ylimino)methyl)phenol]	10.3 ± 0.7 mm	Nil	Nil	13.3 ± 1.2	Nil				
CC1=NNC(=O)C1N=Nc1nccs1 (stereo not drawn) [Compound 6, 3-methyl-4-(thiazol-2-yldiazenyl)-1H-pyrazol-5(4H)-one]	Nil	Nil	16 mm	22 ± 0.8	Nil	showed growth inhibition	most potent antibacterial activity		
Cc1[nH]c2ccccc2c1C=Nc1nccs1 [Compound 18, N-((2-methyl-1H-indol-3-yl)methylene)thiazol-2-amine]	11.3 ± 0.4 mm	Nil	14.6 ± 0.7 mm	16.2 ± 0.9	10 ± 0.2 mm	showed growth inhibition			
COc1ccc(C=Nc2nccs2)c(OC)c1 [Compound 16, N-(2,4-dimethoxy-benzylidene)-thiazol-2-yl-amine]	13 ± 0.1 mm	Nil	Nil	13 ± 0.4	12.3 ± 0.4 mm			exhibited activities	exhibited activities
Nc1nccs1 [Compound 1, 2-aminothiazole]	Nil	Nil	Nil	9.8 ± 0.2	Nil				
Oc1ccccc1C=Nc1nccs1 [Compound 13, 2-((thiazol-2-ylimino)methyl)phenol]	9.6 ± 0.3 mm	Nil	9 ± 0.8 mm	14.95 ± 0.5	11.3 ± 0.4 mm	showed growth inhibition		exhibited activities	exhibited activities
Clc1ccc(C=Nc2nccs2)cc1 [Compound 10, N-(4-chlorobenzylidene)thiazol-2-amine]	Nil	Nil	Nil	14.3 ± 0.4	Nil				
C(=Nc1nccs1)c1ccccc1 [Compound 9, N-(benzylidene)thiazol-2-amine]	Nil	Nil	8 ± 0 mm	8.8 ± 0.4	Nil	showed growth inhibition	least potent		
NC1=NNC(=O)C1N=Nc1nccs1 (stereo not drawn) [Compound 7, 3-amino-4-(thiazol-2-yldiazenyl)-1H-pyrazol-5(4H)-one]	12.3 ± 0.9 mm	12 ± 0 mm	Nil	16 ± 1.4	8.6 ± 0.4 mm			showed activity	showed activity
COc1cccc(C=Nc2nccs2)c1OC [Compound 17, N-(2,3-dimethoxybenzylidene)thiazol-2-amine]	9.3 ± 0.4 mm	Nil	Nil	10.95 ± 0.3	Nil				
CC1=NN=C(C)C1N=Nc1nccs1 [Compound 8, (3,5-Dimethyl-4H-pyrazol-4-yl)-thiazol-2-yl-diazene]	Nil	Nil	Nil	20.6 ± 0.9	10.6 ± 0.4 mm				
COc1ccc(C=Nc2nccs2)cc1 [Compound 14, N-(4-methoxybenzylidene)thiazol-2-amine]	Nil	Nil	Nil	12.3 ± 0.4	10.3 ± 0.4 mm				
COc1ccccc1C=Nc1nccs1 [Compound 15, N-(2-methoxybenzylidene)thiazol-2-amine]	Nil	Nil	Nil	12.6 ± 0.5	Nil				
O=[N+]([O-])c1ccccc1C=Nc1nccs1 [Compound 11, N-(2-nitrobenzylidene)thiazol-2-amine]	10.6 ± 0.4 mm	Nil	11.8 ± 0.6 mm	12.3 ± 0.9	8.6 ± 0.9 mm	showed growth inhibition		exhibited activities	exhibited activities
ClN=Nc1nccs1 [Compound 2, 2-(Chlorodiazenyl)Thiazole]	Nil	Nil	Nil	10.15 ± 0.4	Nil				
